Measurements reported in patent EP4817611A1, “PHARMACEUTICAL COMPOSITION” (EA Pharma Co., Ltd., priority 2023, dated 2025).

Assays:
[1] = One-month stability test in sealed glass vial under three storage conditions; decomposition product 1 by HPLC; format: physicochemical; details: Compound (2) HCl 62.5 mg + acidic substance 62.5 mg
Protocol: When the hydrochloride of the compound represented by the formula (2) (hereinafter referred to as "Compound (2) HCl") is decomposed, the following decomposition products 1 and 2 are produced. [drawing 9]
The amount of the decomposition product 1 produced was measured over time by HPLC to evaluate the stability of the pharmaceutical composition. The HPLC analysis conditions are as follows. When airtight conditions were employed in the stability test, aluminum packaging was used.
• Detector: UV absorption photometer (measurement wavelength: 256 nm) • Column: InertSustain AQ-C18 HP 3 µm, 3.0 × 150 mm (reverse-phase C18 column) • Column temperature: a constant temperature around 25°C • Mobile phase A: 50 mmol/L ammonium formate buffer solution (pH: 4) • Mobile phase B: 50 mmol/L ammonium formate buffer solution (pH: 4) : acetonitrile = 1:4 • Flow rate: 1.0 ml/min
• Time: 0 → 20 • Mobile phase A (%): 95 → 0 • Mobile phase B (%): 5 → 100
The formulation in Table 5-1 (the types of acidic substances are listed in Table 5-2) was mixed in a mortar to prepare a pharmaceutical composition, which was then sealed in a glass vial, and a one-month stability test was performed under three storage conditions (airtight conditions at 4°C, airtight conditions at 60°C, and open conditions at 60°C). As a reference example, a stability test was also performed on the active ingredient alone (without an acidic substance).

[2] = recorded in the Chemical Book; cited from earlier work

SMILES | Content of decomposition product 1 (%) (4°C, airtight) ([1]; 4°C, airtight, glass vial) | Content of decomposition product 1 (%) (60°C, airtight) ([1]; 60°C, airtight, glass vial) | Content of decomposition product 1 (%) (60°C, open, 75% RH) ([1]; 60°C, open, 75% RH) | pKa [2]
CC(C)(Cc1ccc(C(=O)Oc2ccc(C(=N)N)cc2F)s1)C(=O)O [Reference example] | 0.03 | 0.05 | 0.10 | 
N[C@@H](CC(=O)O)C(=O)O [aspartic acid] |  |  |  | 1.99
